What was measured:
[1] = biological target: T1, Ephrin type-A receptor 1 (Homo sapiens) (UniProt P21709); test: Selectivity interaction (KinomeScan (DiscoverX)) EUB0001079a EPHA1; conditions: at 1 µM
T1 sequence (whole entry): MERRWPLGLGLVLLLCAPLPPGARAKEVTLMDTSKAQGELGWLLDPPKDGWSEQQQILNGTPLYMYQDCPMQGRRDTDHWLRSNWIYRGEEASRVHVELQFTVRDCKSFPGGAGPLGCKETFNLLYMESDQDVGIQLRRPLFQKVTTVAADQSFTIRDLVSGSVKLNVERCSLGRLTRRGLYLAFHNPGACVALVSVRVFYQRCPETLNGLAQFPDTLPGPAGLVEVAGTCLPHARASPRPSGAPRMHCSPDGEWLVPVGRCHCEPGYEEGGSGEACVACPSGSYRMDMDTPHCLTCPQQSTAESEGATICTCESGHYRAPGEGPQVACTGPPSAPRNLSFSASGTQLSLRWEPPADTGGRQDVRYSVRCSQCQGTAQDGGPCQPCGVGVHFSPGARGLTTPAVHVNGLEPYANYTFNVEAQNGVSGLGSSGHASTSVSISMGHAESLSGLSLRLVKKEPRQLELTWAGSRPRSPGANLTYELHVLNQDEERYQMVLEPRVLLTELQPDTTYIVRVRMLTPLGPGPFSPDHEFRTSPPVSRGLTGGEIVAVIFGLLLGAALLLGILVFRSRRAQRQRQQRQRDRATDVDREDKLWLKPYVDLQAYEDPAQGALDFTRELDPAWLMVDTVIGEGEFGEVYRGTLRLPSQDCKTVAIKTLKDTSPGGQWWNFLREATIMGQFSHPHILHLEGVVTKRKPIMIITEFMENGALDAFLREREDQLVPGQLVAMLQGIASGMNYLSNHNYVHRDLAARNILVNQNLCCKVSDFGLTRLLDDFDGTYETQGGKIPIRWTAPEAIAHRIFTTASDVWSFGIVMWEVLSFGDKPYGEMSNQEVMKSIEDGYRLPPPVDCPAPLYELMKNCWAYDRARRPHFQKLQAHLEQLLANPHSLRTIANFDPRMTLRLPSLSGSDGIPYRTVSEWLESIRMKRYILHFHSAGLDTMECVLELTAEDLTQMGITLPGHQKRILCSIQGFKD

[2] = biological target: T2, Phosphatidylinositol 4,5-bisphosphate 3-kinase catalytic subunit delta isoform (Homo sapiens) (UniProt O00329); test: Selectivity interaction (KinomeScan (DiscoverX)) EUB0000045b PIK3CD
T2 sequence (whole entry): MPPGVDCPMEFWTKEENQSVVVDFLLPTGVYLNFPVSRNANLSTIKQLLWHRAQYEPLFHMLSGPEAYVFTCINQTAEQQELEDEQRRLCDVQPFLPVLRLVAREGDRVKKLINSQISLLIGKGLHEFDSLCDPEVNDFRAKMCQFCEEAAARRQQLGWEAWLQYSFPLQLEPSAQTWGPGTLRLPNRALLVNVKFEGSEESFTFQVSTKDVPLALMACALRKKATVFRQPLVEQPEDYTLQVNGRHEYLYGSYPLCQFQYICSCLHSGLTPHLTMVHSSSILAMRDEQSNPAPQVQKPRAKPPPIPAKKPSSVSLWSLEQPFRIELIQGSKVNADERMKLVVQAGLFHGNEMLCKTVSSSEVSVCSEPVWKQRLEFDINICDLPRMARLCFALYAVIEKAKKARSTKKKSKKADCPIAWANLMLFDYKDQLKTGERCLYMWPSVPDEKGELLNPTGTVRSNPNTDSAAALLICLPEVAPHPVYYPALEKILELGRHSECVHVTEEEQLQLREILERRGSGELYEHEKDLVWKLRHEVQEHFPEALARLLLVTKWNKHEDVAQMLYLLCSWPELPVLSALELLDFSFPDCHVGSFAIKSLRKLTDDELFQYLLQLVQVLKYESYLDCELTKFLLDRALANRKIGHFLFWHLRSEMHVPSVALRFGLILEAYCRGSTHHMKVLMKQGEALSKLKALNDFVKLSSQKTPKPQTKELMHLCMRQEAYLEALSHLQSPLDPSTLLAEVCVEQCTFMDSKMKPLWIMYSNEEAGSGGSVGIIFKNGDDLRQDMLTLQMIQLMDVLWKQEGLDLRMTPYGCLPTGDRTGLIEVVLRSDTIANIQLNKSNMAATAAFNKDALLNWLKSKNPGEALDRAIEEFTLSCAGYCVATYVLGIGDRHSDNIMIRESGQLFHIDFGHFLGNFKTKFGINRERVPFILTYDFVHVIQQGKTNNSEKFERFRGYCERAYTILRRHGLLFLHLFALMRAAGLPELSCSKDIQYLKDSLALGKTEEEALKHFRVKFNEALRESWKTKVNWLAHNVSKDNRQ

[3] = biological target: T3, Mitogen-activated protein kinase kinase kinase 3 (Homo sapiens) (UniProt Q99759); test: Selectivity interaction (KinomeScan (DiscoverX)) EUB0001619a MAP3K3; conditions: at 1 µM
T3 sequence (whole entry): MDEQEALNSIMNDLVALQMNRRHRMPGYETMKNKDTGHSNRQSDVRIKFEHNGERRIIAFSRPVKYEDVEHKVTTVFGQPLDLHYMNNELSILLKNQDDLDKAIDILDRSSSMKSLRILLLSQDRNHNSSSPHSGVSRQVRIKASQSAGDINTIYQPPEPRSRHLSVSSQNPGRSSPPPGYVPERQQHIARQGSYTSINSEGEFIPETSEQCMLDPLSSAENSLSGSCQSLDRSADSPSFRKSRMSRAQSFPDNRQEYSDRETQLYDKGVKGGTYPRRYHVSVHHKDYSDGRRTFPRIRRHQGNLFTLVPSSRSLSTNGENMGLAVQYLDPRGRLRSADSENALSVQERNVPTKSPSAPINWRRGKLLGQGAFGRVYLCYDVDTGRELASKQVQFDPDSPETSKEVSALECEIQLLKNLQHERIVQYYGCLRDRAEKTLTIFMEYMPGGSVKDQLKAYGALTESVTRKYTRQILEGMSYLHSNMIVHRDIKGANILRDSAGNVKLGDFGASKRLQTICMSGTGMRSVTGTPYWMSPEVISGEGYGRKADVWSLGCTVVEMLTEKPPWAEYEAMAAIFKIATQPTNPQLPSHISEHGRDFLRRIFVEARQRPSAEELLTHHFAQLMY

Compound: Nc1cnc(N2CCc3cc(S(=O)(=O)Nc4c(F)cc(Cl)cc4F)cc(N4CCCC4=O)c32)nc1 [TP-020n]
- % of control [1]: 99%

Compound: C=CC(=O)Nc1cc(-n2c(=O)ccc3cnc4ccc(-c5ccc(NS(C)(=O)=O)cc5)cc4c32)ccc1C
- % of control ([2]; at 1 µM): 73%
- % of control ([2]; at 10 µM): 100%

Compound: N#Cc1cccc(-c2c[nH]c3ncnc(N4CCOCC4)c23)c1
- % of control [3]: 8.2%

Source: ChEMBL document CHEMBL5465560, “Selectivity Literature for EUbOPEN Chemogenomic Library” (2024)
